Source: patent publication US6340687B1, “Substituted tetrahydro-pyrimidine-2(1H)-thione HDL-C elevators useful as antiatherosclerotic agents” (American Home Products Corporation, priority 1997, dated 2002)

How the values were obtained:
HDL cholesterol = test: in vivo standard pharmacological test procedure measuring elevation of HDL cholesterol levels in cholesterol/cholic acid-fed rats; set-up: species or system Male Sprague-Dawley rats; settings: serum, eight days of treatment; for change in vivo at 50 mg/kg: dose 50 mg/kg mixed in diet; for change in vivo at 100 mg/kg / HDL Cholesterol Level Increase (%): dose 100 mg/kg mixed in diet
Description: Representative compounds of this invention were evaluated in an in vivo standard pharmacological test procedure which measured the ability of the compounds of this invention to elevate HDL cholesterol levels. The following briefly describes the procedure used and results obtained. Male Sprague-Dawley rats weighing 200-225 g were housed two per cage and fed Purina Rodent Chow Special Mix 5001-S supplemented with 0.25% cholic acid and 1.0% cholesterol and water ad libitum for 8 days. Each test substance was administered to a group of six rats fed the same diet with the test diet mixed in as 0.005-0.1% of the total diet. Body weight and food consumption were recorded prior to diet administration and at termination. Typical doses of the test substances were 5-100 mg/kg/day.
At termination, blood was collected from anesthetized rats and the serum was separated by centrifugation. Total serum cholesterol was assayed using the Sigma Diagnostics enzymatic kit for the determination of cholesterol, Procedure No. 352, modified for use with ninety-six well microtiter plates. After reconstitutiton with water the reagent contains 300 U/l cholesterol oxidase, 100 U/l cholesterol esterase, 1000 U/l horse radish peroxidase, 0.3 mmol/l 4-aminoantipyrine and 30.0 mmol/l p-hydroxybenzene sulfonate in a pH 6.5 buffer. In the reaction cholesterol was oxidized to produce hydrogen peroxide which was used to form a quinoneimine dye. The concentration of dye formed was measured spectrophotometrically by absorbance at 490 nm after incubation at 25° C. for 30 minutes. The concentration of cholesterol was determined for each serum sample relative to a commercial standard from Sigma.
HDL cholesterol concentrations in serum were determined by separation of lipoprotein classes by fast protein liquid chromatography (FPLC) by a modification of the method of Kieft et al., (J. Lipid Res., 32, 859-866 (1991). Using this methodology, […] of serum was injected onto Superose 12 and Superose 6 (Pharmacia), in series, with a column buffer of 0.05 M Tris (2-amino-2-hydroxymethyl-1,3-propanediol) and 0.15 M sodium chloride at a flow rate of 0.5 mL/min. The eluted sample was mixed on line with Boehringer-Mannheim cholesterol reagent pumped at 0.2 mL/min. The combined eluents were mixed and incubated on line through a knitted coil (Applied Biosciences) maintained at a temperature of 45° C. The eluent was monitored by measuring absorbance at 490 nm and gives a continuous absorbance signal proportional to the cholesterol concentration. The relative concentration for each lipoprotein class was calculated as the percent of total absorbance. HDL cholesterol concentration in serum was calculated as the percent of total cholesterol as determined by FPLC multiplied by the total serum cholesterol concentration.
In Examples 5-7, 9, 10 and 12-20 the test compounds were administered at a dose of 100 mg/kg. In Examples 1, 2, 3 and 11, the test compounds were administered at a dose of 50 mg/kg. In Example 4, the test compound was administered at a dose of 46 mg/kg and in Example 8 at a dose of 90 mg/kg. The duration of treatment for all examples was eight days.

[1] = Rattus norvegicus, feed or water, 192 h, read-out: HDL Cholesterol Level Increase (%)

Row | Structure (SMILES) | melting point | change in vivo at 100 mg/kg (HDL cholesterol; [1]) | other results
1 | Cc1cc(Cl)ccc1N1CCCNC1=S [Example 1, 1-(4-Chloro-2-methyl-phenyl)-3,4,5,6-tetrahydro-pyrimidine-2(1H)-thione] | 266 to 268 °C |  | change in vivo at 50 mg/kg (HDL cholesterol; [1]): 86%
2 | S=C1NCCCN1c1ccccc1 [Example 2, 1-Phenyl-3,4,5,6-tetrahydro-pyrimidine-2(1H)-thione] | 211 to 212 °C |  | change in vivo at 50 mg/kg (HDL cholesterol; [1]): 20%
3 | CCN1CCCN(c2ccc(Cl)cc2C)C1=S [Example 3, 1-(4-Chloro-2-methyl-phenyl)-3-ethyl-3,4,5,6-tetrahydro-pyrimidine-2(1H)-thione] | 116 to 118 °C |  | change in vivo at 50 mg/kg (HDL cholesterol; [1]): 152%
4 | Cc1cccc(C)c1N1CCCNC1=S [Example 4, 1-(2,6-Dimethyl-phenyl)-3,4,5,6-tetrahydro-pyrimidine-2(1H)-thione] | 249 to 251 °C |  | change in vivo at 46 mg/kg (HDL cholesterol; Rattus norvegicus, feed or water, 192 h, dose 46 mg/kg mixed in diet, read-out: HDL Cholesterol Level Increase (%)): 34%
5 | CCN1CCCN(c2cc(Cl)ccc2C)C1=S [Example 5, 1-(5-Chloro-2-methyl-phenyl)-3-ethyl-3,4,5,6-tetrahydro-pyrimidine-2(1H)-thione] | 111 to 112 °C | 183% | 
6 | Cc1ccc(Cl)cc1N1CCCN(C(C)C)C1=S [Example 6, 1-(5-Chloro-2-methyl-phenyl)-3-isopropyl-3,4,5,6-tetrahydro-pyrimidine-2(1H)-thione] | 176 to 178 °C | 137% | 
7 | Cc1cc(Cl)ccc1N1CCCN(C(C)C)C1=S [Example 7, 1-(4-Chloro-2-methyl-phenyl)-3-isopropyl-3,4,5,6-tetrahydro-pyrimidine-2(1H)-thione] | 147 to 149 °C | 92% | 
8 | C=CCN1CCCN(c2cc(Cl)ccc2C)C1=S [Example 8, 3-Allyl-1-(5-chloro-2-methyl-phenyl)-3,4,5,6-tetrahydro-pyrimidine-2(1H)-thione] | 71 to 72 °C |  | change in vivo at 90 mg/kg (HDL cholesterol; Rattus norvegicus, feed or water, 192 h, dose 90 mg/kg mixed in diet, read-out: HDL Cholesterol Level Increase (%)): 21%
9 | Cc1ccc(Cl)cc1N1CCCN(C)C1=S [Example 9, 1-(5-Chloro-2-methyl-phenyl)-3-methyl-3,4,5,6-tetrahydro-pyrimidine-2(1H)-thione] | 143 to 145 °C | 143% | 
10 | C=CCN1CCCN(c2ccc(Cl)cc2C)C1=S [Example 10, 3-Allyl-1-(4-chloro-2-methyl-phenly)-3,4,5,6-tetrahydro-pyrimidine-2(1H)-thione] |  |  | HDL Cholesterol Level Increase (%) (HDL cholesterol): 57%
11 | Cc1cc(Cl)ccc1N1CCCN(C)C1=S [Example 11, 1-(4-Chloro-2-methyl-phenyl)-3-methyl-3,4,5,6-tetrahydro-pyrimidine-2(1H)thione] | 143 to 145 °C |  | change in vivo at 50 mg/kg (HDL cholesterol; [1]): 86%
12 | C=CCN1CCCN(c2c(C)cccc2Cl)C1=S [Example 12, 3-Allyl-1-(6-chloro-2-methyl-phenyl)-3,4,5,6-tetrahydro-pyrimidine-2(1H)-thione] | 82 to 84 °C | 19% | 
13 | Cc1cccc(Cl)c1N1CCCN(C)C1=S [Example 13, 1-(6-Chloro-2-methyl-phenyl)-3-methyl-3,4,5,6-tetrahydro-pyrimidine-2(1H)-thione] | 164 to 165 °C | 81% | 
14 | Cc1ccc(Cl)cc1N1CCCN(CC(C)C)C1=S [Example 14, 1-(5-Chloro-2-methyl-phenyl)-3-isobutyl-3,4,5,6-tetrahydro-pyrimidine-2-(1H)-thione] |  |  | HDL Cholesterol Level Increase (%) (HDL cholesterol): 66%
15 | Cc1cccc(Cl)c1N1CCCN(C(C)C)C1=S [Example 15, 1-(6-Chloro-2-methyl-phenyl)-3-isopropyl-3,4,5,6-tetrahydro-pyrimidine-2(1H)-thione] | 135 to 136 °C | 86% | 
16 | CCN1CCCN(c2c(C)cccc2Cl)C1=S [Example 16, 1-(6-Chloro-2-methyl-phenyl)-3-ethyl-3,4,5,6-tetrahydro-pyrimidine-2(1H)-thione] | 88 to 90 °C | 85% | 
17 | Cc1cc(Cl)ccc1N1CCCN(CC(C)C)C1=S [Example 17, 1-(4-Chloro-2-methyl-phenyl)-3-isobutyl-3,4,5,6-tetrahydro-pyrimidine-2(1H)-thione] | 88 to 90 °C | 12% | 
18 | Cc1cccc(Cl)c1N1CCCN(C2CCC2)C1=S [Example 18, 1-(6-Chloro-2-methyl-phenyl)-3-cyclobutyl-3,4,5,6-tetrahydro-pyrimidine-2(1H)-thione] | 89 to 91 °C | 42% | 
19 | Cc1ccc(Cl)cc1N1CCCN(C2CCC2)C1=S [Example 19, 1-(5-Chloro-2-methyl-phenyl)-3-cyclobutyl-3,4,5,6-tetrahydro-pyrimidine-2(1H)-thione] | 152 to 154 °C | 37% | 
20 | Cc1cccc(Cl)c1N1CCCN(CC(C)C)C1=S [Example 20, 1-(6-Chloro-2-methyl-phenyl)-3-isobutyl-3,4,5,6-tetrahydro-pyrimidine-2(1H)-thione] | 119 to 121 °C | 24% | 
